Test results as given in ChEMBL document CHEMBL6071152, “Design, synthesis, and biological evaluation of oridonin derivatives as novel NLRP3 inflammasome inhibitors for the treatment of acute lung injury” (Eur J Med Chem, 2024).
Calls of active or inactive are those of the source. No cut-off for these calls is given here.

Tests used:
Mus musculus [1] = assay: Anti-inflammatory activity against LPS-stimulated acute lung injury C57BL/6 mouse model assessed as decrease in alveolar dilation in right lung at 1 to 10 mg/kg, ip treated for 3 days and on third day administered with LPS at 30 mins post-compound challenge and measured after 12 hrs by Hematoxylin-Eosin staining analysis; type: functional, organism-based; details: dose 1-10 mg/kg, time 3.5 day
[2] = target: NACHT, LRR and PYD domains-containing protein 3 (Mus musculus, UniProt Q8R4B8); assay: Inhibition of NLRP3 inflammasome activation in ICR mouse BMDM assessed as inhibition of LPS/ATP-stimulated IL-1 beta production in cell supernatant treated for 3 hrs with LPS followed by incubation with compound for 1 hr and later stimulated with ATP for 0.5 hrs by ELISA; type: cell-based
[3] = target: NACHT, LRR and PYD domains-containing protein 3 (Mus musculus) (UniProt Q8R4B8); assay: Inhibition of NLRP3 inflammasome priming in ICR mouse BMDM assessed as inhibition of NLRP3 expression in cell supernatant at 0.2 to 5 uM pretreated with compound for 1 hr followed by stimulation with LPS for 3 hrs and later incubated with ATP for 30 mins by western blot analysis; type: cell-based; details: dose 0.2-5 µM, time 4.5 hrs
Mus musculus [4] = assay: Anti-inflammatory activity against LPS-stimulated acute lung injury C57BL/6 mouse model assessed as active animal at 10 mg/kg, ip treated for 3 days and on third day administered with LPS at 30 mins post-compound challenge; type: functional, organism-based; details: time 3.0 day
[5] = target: NACHT, LRR and PYD domains-containing protein 3 (Mus musculus) (UniProt Q8R4B8); assay: Inhibition of NLRP3 inflammasome priming in ICR mouse BMDM assessed as inhibition of LPS/ATP-stimulated TNF-alpha secretion in cell supernatant at 0.2 to 5 uM treated for 3 hrs with LPS followed by incubation with compound for 1 hr and later stimulated with ATP for 0.5 hrs by ELISA; type: cell-based; details: dose 0.2-5 µM, time 1.5 hrs
[6] = target: NACHT, LRR and PYD domains-containing protein 3 (Mus musculus) (UniProt Q8R4B8); assay: Inhibition of NLRP3 inflammasome activation in ICR mouse BMDM assessed as inhibition of LPS/nigericin-stimulated IL-1 beta expression in cell supernatant at 1 uM treated for 3 hrs with LPS followed by incubation with compound for 1 hr and later stimulated with nigericin for 0.5 hrs by western blot analysis; type: cell-based; details: time 1.5 hrs
Mus musculus [7] = assay: Anti-inflammatory activity against LPS-stimulated acute lung injury C57BL/6 mouse model assessed as decrease in TNF-alpha level in BALF at 0.1 to 1 mg/kg, ip treated for 3 days and on third day administered with LPS at 30 mins post-compound challenge and measured after 12 hrs by ELISA; type: functional, organism-based; details: dose 0.1-1 mg/kg, time 3.5 day
[8] = target: NLR family CARD domain-containing protein 4 (Mus musculus) (UniProt Q3UP24); assay: Inhibition of NLRC4 inflammasome activation in ICR mouse BMDM assessed as inhibition of FLA-ST-stimulated IL-1 beta expression in cell supernatant at 1 uM treated for 3 hrs with LPS followed by incubation with compound for 1 hr and later stimulated with FLA-ST for 2 hrs by western blot analysis; type: cell-based
[9] = target: NLR family CARD domain-containing protein 4 (Mus musculus) (UniProt Q3UP24); assay: Inhibition of NLRC4 inflammasome activation in ICR mouse BMDM assessed as inhibition of FLA-ST-stimulated IL-1 beta secretion in cell supernatant at 1 uM treated for 3 hrs with LPS followed by incubation with compound for 1 hr and later stimulated with FLA-ST for 2 hrs by ELISA; type: cell-based

Sequence of NACHT, LRR and PYD domains-containing protein 3 (Mus musculus) (Q8R4B8 whole entry, the tested form may be a part): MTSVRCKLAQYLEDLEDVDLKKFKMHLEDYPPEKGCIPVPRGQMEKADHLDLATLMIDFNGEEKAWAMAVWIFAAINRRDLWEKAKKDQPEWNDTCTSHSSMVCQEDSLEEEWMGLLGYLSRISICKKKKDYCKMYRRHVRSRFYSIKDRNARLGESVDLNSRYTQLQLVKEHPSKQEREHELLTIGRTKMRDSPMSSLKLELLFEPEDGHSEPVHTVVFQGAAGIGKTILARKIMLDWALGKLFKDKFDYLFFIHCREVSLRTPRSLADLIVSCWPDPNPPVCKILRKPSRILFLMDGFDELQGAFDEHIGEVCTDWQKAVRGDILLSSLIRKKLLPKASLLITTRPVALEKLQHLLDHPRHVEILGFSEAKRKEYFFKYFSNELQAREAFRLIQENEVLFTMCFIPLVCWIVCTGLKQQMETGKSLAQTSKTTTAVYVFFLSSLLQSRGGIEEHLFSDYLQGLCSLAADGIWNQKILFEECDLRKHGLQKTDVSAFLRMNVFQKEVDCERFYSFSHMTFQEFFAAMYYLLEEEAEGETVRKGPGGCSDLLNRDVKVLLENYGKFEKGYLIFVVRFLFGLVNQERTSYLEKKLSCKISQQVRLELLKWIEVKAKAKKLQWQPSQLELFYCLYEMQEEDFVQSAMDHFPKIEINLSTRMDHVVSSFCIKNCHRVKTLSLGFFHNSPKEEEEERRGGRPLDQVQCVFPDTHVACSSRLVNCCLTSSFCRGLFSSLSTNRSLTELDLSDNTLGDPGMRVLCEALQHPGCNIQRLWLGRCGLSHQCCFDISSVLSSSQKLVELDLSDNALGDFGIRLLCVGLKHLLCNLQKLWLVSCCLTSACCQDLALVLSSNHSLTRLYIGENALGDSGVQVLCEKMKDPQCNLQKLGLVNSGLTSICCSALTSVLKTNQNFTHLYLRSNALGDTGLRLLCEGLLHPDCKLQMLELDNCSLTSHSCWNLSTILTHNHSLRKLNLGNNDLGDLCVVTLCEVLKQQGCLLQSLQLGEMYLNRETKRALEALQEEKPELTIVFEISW
Sequence of NLR family CARD domain-containing protein 4 (Mus musculus) (Q3UP24 whole entry, the tested form may be a part): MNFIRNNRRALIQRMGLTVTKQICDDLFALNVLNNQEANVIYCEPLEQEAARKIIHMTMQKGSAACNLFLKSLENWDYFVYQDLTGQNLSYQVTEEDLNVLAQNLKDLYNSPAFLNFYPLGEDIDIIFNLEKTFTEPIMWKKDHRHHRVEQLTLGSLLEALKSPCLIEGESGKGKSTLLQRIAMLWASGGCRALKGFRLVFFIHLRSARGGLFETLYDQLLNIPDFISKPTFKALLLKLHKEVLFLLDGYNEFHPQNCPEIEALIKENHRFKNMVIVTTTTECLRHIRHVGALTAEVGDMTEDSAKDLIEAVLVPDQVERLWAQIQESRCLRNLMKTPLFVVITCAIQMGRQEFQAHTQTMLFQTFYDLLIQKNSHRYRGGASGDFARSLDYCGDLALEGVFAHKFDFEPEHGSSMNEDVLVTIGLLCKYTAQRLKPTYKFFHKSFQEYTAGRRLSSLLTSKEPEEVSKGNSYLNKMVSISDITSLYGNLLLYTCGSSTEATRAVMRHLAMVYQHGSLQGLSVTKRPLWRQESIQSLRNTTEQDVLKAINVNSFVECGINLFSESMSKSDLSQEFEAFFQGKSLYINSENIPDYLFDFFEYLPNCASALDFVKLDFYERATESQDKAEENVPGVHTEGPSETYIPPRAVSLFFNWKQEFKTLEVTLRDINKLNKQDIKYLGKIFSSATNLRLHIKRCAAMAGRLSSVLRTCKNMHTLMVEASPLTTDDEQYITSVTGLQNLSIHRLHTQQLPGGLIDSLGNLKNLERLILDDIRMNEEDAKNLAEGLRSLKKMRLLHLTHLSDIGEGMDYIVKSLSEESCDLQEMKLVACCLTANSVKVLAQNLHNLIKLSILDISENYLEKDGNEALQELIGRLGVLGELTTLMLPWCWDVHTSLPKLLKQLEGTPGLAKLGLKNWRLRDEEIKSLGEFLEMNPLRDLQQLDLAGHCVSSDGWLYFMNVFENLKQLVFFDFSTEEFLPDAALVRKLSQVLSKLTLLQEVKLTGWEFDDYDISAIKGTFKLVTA
Sequence of NACHT, LRR and PYD domains-containing protein 3 (Q8R4B8 whole entry, the tested form may be a part): as the sequence (Q8R4B8 whole entry, the tested form may be a part) above

IC50 [2]: 41.8 nM
inhibition [3]: inactive
inhibition [5]: inactive
inhibition [6]: Active
inhibition [8]: inactive
inhibition [9]: inactive
SMILES: C=C1C(=O)[C@]23[C@H](OC(=O)Nc4ccc(F)cc4)[C@H]1CC[C@H]2[C@]12C=CCC(C)(C)[C@H]1[C@H](O)[C@@]3(O)OC2
Activity (Mus musculus [1]): Active
Activity (Mus musculus [4]): Active
Activity (Mus musculus [7]): Dose-Dependent Effect
